From patent publication US20130072415A1, “DETERGENT COMPOSITIONS COMPRISING […] BLEND RATIOS of ISOPRENOID-BASED SURFACTANTS” (The Procter & Gamble Company, priority 2011, published 2013)

Experiment: Dynamic Interfacial Tension (DIFT) analysis, ascending canola oil drop in aqueous detergent phase
Assay type: physicochemical
Details: 100 ppm surfactant, 34 ppm Calcium/Magnesium water hardness (3:1), 22° C., pH 8-8.5
Experimental: The surfactant systems in Table 3 are analyzed via DIFT method. Ingredients listed are in ppm concentration as would be common in a detergent wash water solution. Analysis conditions are in water of 103 ppm Calcium/Magnesium water hardness level (3:1 Calcium:Magnesium), 21° C., pH 8-8.5. • Formula E contains a commercial branched Neodol® 67 AS surfactant. • Formula F contains 90A:10B AS of the present invention substituted for branched Neodol® 67 AS surfactant. • Formulas G and H are common detergent surfactant mixtures containing no branched alkyl sulfate surfactants.
The surfactant systems in Table 5 are analyzed via DIFT method. Ingredients listed are in ppm concentration as would be common in a detergent wash water solution. Analysis conditions are in water of 34 ppm Calcium/Magnesium water hardness level (3:1 Calcium:Magnesium), 22° C., pH 8-8.5.
Method: Dynamic Interfacial Tension Analysis. Dynamic Interfacial Tension (DIFT) analysis is performed on a Krüss® DVT30 Drop Volume Tensiometer (Krüss USA, Charlotte, N.C.). The instrument is configured to measure the interfacial tension (IFT) of an ascending oil drop in aqueous detergent (surfactant) phase. The oil used is canola oil (Crisco Pure Canola Oil manufactured by The J.M. Smucker Company). The aqueous detergent and oil phases are temperature controlled at 22° C. (+/−1° C.), via a recirculating water temperature controller attached to the tensiometer. A dynamic interfacial tension curve is generated by dispensing the oil drops into the aqueous detergent phase from an ascending capillary with an internal diameter of 0.2540 mm, over a range of flow rates and measuring the interfacial tension at each flow rate. Data is generated at oil dispensing flow rates of 500 uL/min to 1 uL/min with 2 flow rates per decade on a logarithmic scale (7 flow rates measured in this instance). Interfacial tension is measured on three oil drops per flow rate and then averaged. Interfacial tension is reported in units of mN/m. Surface age of the oil drops at each flow rate is also recorded and plots can be generated either of interfacial tension (y-axis) versus oil flow rate (x-axis) or interfacial tension (y-axis) versus oil drop surface age (x-axis). […] Example of analysis of a 100 ppm surfactant concentration, with water hardness (3:1 Ca:Mg) of 103 ppm, 22° C., pH 8: Density settings for 22° C. are set at 0.916 g/ml for Canola Oil and 0.998 g/ml for aqueous surfactant phase (assumed to be the same as water since dilute solution). To a 100 ml volumetric flask is added 1.00 mL of 1% (wt/wt) Surfactant solution in deionized water and the volumetric is then filled to the mark with […] 3:1 CaCl2:MgCl2 solution and mixed well. The solution is transferred to a beaker and the pH adjusted to 8 by addition of a few drops of 0.1N NaOH or […]. The solution is then loaded into the tensiometer measurement cell and analyzed. Total time from addition of hardness to surfactant and start of analysis is less than 5 minutes.

Row | Compound | IFT @ 1 uL/min Oil Flowrate | IFT @ 10 uL/min Oil Flowrate | IFT @ 99 uL/min Oil Flowrate
1 | CC(C)CCCC(C)CCCC(C)CCCOS(=O)(=O)[O-].[Na+] (stereo not drawn) [A AS, sodium salt of 4,8,12-trimethyltridecan-1-ol sulfate] | 0.17 mN/m | 0.88 mN/m | 4.83 mN/m
2 | CCC(CCCC(C)CCCC(C)C)CCOS(=O)(=O)[O-].[Na+] (stereo not drawn) [B AS, sodium salt of 3-ethyl-7,11-dimethyldodecan-1-ol sulfate] | 0.35 mN/m | 1.6 mN/m | 6.14 mN/m
